Assay results: the NIST ThermoML archive (doi:10.1021/je400659p)
± gives the expanded uncertainty stated by the source. Values belong to the compound of their own block, whether it stands above or below them.

Assays:
[1] = refractive index (Na D-line) (dimensionless); details: 101.33 kPa, Liquid, Standard Abbe refractometry
[2] = 101 kPa, Liquid, Vibrating tube method
[3] = refractive index (Na D-line) (dimensionless); xn = mol fraction of the nth substance listed; details: 101 kPa, Liquid, Standard Abbe refractometry
[4] = xn = mol fraction of the nth substance listed; details: 101 kPa, Liquid, Vibrating tube method

SMILES: OCCO [1,2-ethanediol]
refractive index ([1]; 298.15 K): 1.43 ± 0.0004
refractive index ([1]; 303.15 K): 1.4285 ± 0.0004
refractive index ([1]; 313.15 K): 1.4258 ± 0.0004
refractive index ([1]; 323.15 K): 1.4229 ± 0.0004
mass density ([2]; 293.15 K): 1113.45 ± 0.16 kg/m3
mass density ([2]; 303.15 K): 1106.45 ± 0.16 kg/m3
mass density ([2]; 313.15 K): 1099.38 ± 0.16 kg/m3
mass density ([2]; 323.15 K): 1092.24 ± 0.15 kg/m3
mass density ([2]; 333.15 K): 1085 ± 0.15 kg/m3
mass density ([2]; 343.15 K): 1077.65 ± 0.15 kg/m3
mass density ([2]; 353.15 K): 1070.17 ± 0.15 kg/m3

SMILES: OCCO [1,2-ethanediol] + CCCCn1cc[n+](C)c1.F[B-](F)(F)F
refractive index ([3]; 298.15 K, x2 = 0): 1.43 ± 0.0004
refractive index ([3]; 303.15 K, x2 = 0): 1.4285 ± 0.0004
refractive index ([3]; 313.15 K, x2 = 0): 1.4258 ± 0.0004
refractive index ([3]; 323.15 K, x2 = 0): 1.4229 ± 0.0004

SMILES: OCCO [1,2-ethanediol] + CCn1cc[n+](C)c1.F[B-](F)(F)F
mass density ([4]; 293.15 K, x2 = 0): 1113.45 ± 0.16 kg/m3
mass density ([4]; 303.15 K, x2 = 0): 1106.45 ± 0.16 kg/m3
mass density ([4]; 313.15 K, x2 = 0): 1099.38 ± 0.16 kg/m3
mass density ([4]; 323.15 K, x2 = 0): 1092.24 ± 0.15 kg/m3
mass density ([4]; 333.15 K, x2 = 0): 1085 ± 0.15 kg/m3
mass density ([4]; 343.15 K, x2 = 0): 1077.65 ± 0.15 kg/m3
mass density ([4]; 353.15 K, x2 = 0): 1070.17 ± 0.15 kg/m3
refractive index ([3]; 298.15 K, x2 = 0): 1.43 ± 0.0004
refractive index ([3]; 303.15 K, x2 = 0): 1.4285 ± 0.0004
refractive index ([3]; 313.15 K, x2 = 0): 1.4258 ± 0.0004
refractive index ([3]; 323.15 K, x2 = 0): 1.4229 ± 0.0004

SMILES: C1COCCO1 [1,4-dioxane]
refractive index ([1]; 298.15 K): 1.4205 ± 0.0004
refractive index ([1]; 303.15 K): 1.4171 ± 0.0004
refractive index ([1]; 313.15 K): 1.4112 ± 0.0004
refractive index ([1]; 323.15 K): 1.4063 ± 0.0004
mass density ([2]; 293.15 K): 1033.57 ± 0.26 kg/m3
mass density ([2]; 298.15 K): 1027.92 ± 0.25 kg/m3
mass density ([2]; 303.15 K): 1022.27 ± 0.25 kg/m3
mass density ([2]; 313.15 K): 1010.91 ± 0.24 kg/m3
mass density ([2]; 323.15 K): 999.49 ± 0.23 kg/m3
mass density ([2]; 333.15 K): 987.97 ± 0.23 kg/m3
mass density ([2]; 343.15 K): 976.37 ± 0.23 kg/m3
mass density ([2]; 353.15 K): 964.63 ± 0.23 kg/m3

SMILES: C1COCCO1 [1,4-dioxane] + CCn1cc[n+](C)c1.F[B-](F)(F)F
mass density ([4]; 293.15 K, x2 = 0): 1033.57 ± 0.26 kg/m3
mass density ([4]; 298.15 K, x2 = 0): 1027.92 ± 0.25 kg/m3
mass density ([4]; 303.15 K, x2 = 0): 1022.27 ± 0.25 kg/m3
mass density ([4]; 313.15 K, x2 = 0): 1010.91 ± 0.24 kg/m3
mass density ([4]; 323.15 K, x2 = 0): 999.49 ± 0.23 kg/m3
mass density ([4]; 333.15 K, x2 = 0): 987.97 ± 0.23 kg/m3
mass density ([4]; 343.15 K, x2 = 0): 976.37 ± 0.23 kg/m3
mass density ([4]; 353.15 K, x2 = 0): 964.63 ± 0.23 kg/m3
refractive index ([3]; 298.15 K, x2 = 0): 1.4205 ± 0.0004
refractive index ([3]; 303.15 K, x2 = 0): 1.4171 ± 0.0004
refractive index ([3]; 313.15 K, x2 = 0): 1.4112 ± 0.0004
refractive index ([3]; 323.15 K, x2 = 0): 1.4063 ± 0.0004

The remaining lines, values ahead:

refractive index ([1]; 298.15 K): 1.4215 ± 0.0004
refractive index ([1]; 303.15 K): 1.4202 ± 0.0004
refractive index ([1]; 313.15 K): 1.4179 ± 0.0004
refractive index ([1]; 323.15 K): 1.4153 ± 0.0004
mass density ([2]; 293.15 K): 1204.44 ± 0.4 kg/m3
mass density ([2]; 298.15 K): 1200.89 ± 0.39 kg/m3
mass density ([2]; 303.15 K): 1197.34 ± 0.39 kg/m3
mass density ([2]; 313.15 K): 1190.27 ± 0.39 kg/m3
mass density ([2]; 323.15 K): 1183.24 ± 0.38 kg/m3
mass density ([2]; 333.15 K): 1176.25 ± 0.37 kg/m3
mass density ([2]; 343.15 K): 1169.32 ± 0.37 kg/m3
mass density ([2]; 353.15 K): 1162.44 ± 0.36 kg/m3
SMILES: CCCCn1cc[n+](C)c1.F[B-](F)(F)F [1-butyl-3-methylimidazolium tetrafluoroborate]

mass density ([4]; 293.15 K, x1 = 1): 1204.44 ± 0.4 kg/m3
mass density ([4]; 298.15 K, x1 = 1): 1200.89 ± 0.39 kg/m3
mass density ([4]; 303.15 K, x1 = 1): 1197.34 ± 0.39 kg/m3
mass density ([4]; 313.15 K, x1 = 1): 1190.27 ± 0.39 kg/m3
mass density ([4]; 323.15 K, x1 = 1): 1183.24 ± 0.38 kg/m3
mass density ([4]; 333.15 K, x1 = 1): 1176.25 ± 0.37 kg/m3
mass density ([4]; 343.15 K, x1 = 1): 1169.32 ± 0.37 kg/m3
mass density ([4]; 353.15 K, x1 = 1): 1162.44 ± 0.36 kg/m3
refractive index ([3]; 298.15 K, x1 = 1): 1.4215 ± 0.0004
refractive index ([3]; 303.15 K, x1 = 1): 1.4202 ± 0.0004
refractive index ([3]; 313.15 K, x1 = 1): 1.4179 ± 0.0004
refractive index ([3]; 323.15 K, x1 = 1): 1.4153 ± 0.0004
SMILES: CCCCn1cc[n+](C)c1.F[B-](F)(F)F [1-butyl-3-methylimidazolium tetrafluoroborate] + C1COCCO1

refractive index ([3]; 298.15 K, x1 = 0.0895): 1.4276 ± 0.0004
refractive index ([3]; 298.15 K, x1 = 0.1758): 1.4257 ± 0.0004
refractive index ([3]; 298.15 K, x1 = 0.3578): 1.4231 ± 0.0004
refractive index ([3]; 298.15 K, x1 = 0.4397): 1.4224 ± 0.0004
refractive index ([3]; 298.15 K, x1 = 0.6482): 1.4217 ± 0.0004
refractive index ([3]; 298.15 K, x1 = 0.8121): 1.4216 ± 0.0004
refractive index ([3]; 298.15 K, x1 = 1): 1.4215 ± 0.0004
refractive index ([3]; 303.15 K, x1 = 0.0895): 1.4258 ± 0.0004
refractive index ([3]; 303.15 K, x1 = 0.1758): 1.4239 ± 0.0004
refractive index ([3]; 303.15 K, x1 = 0.3578): 1.4216 ± 0.0004
refractive index ([3]; 303.15 K, x1 = 0.4397): 1.4211 ± 0.0004
refractive index ([3]; 303.15 K, x1 = 0.6482): 1.4205 ± 0.0004
refractive index ([3]; 303.15 K, x1 = 0.8121): 1.4204 ± 0.0004
refractive index ([3]; 303.15 K, x1 = 1): 1.4202 ± 0.0004
refractive index ([3]; 313.15 K, x1 = 0.0895): 1.4231 ± 0.0004
refractive index ([3]; 313.15 K, x1 = 0.1758): 1.4212 ± 0.0004
refractive index ([3]; 313.15 K, x1 = 0.3578): 1.4188 ± 0.0004
refractive index ([3]; 313.15 K, x1 = 0.4397): 1.4182 ± 0.0004
refractive index ([3]; 313.15 K, x1 = 0.6482): 1.4178 ± 0.0004
refractive index ([3]; 313.15 K, x1 = 0.8121): 1.4179 ± 0.0004
refractive index ([3]; 313.15 K, x1 = 1): 1.4179 ± 0.0004
refractive index ([3]; 323.15 K, x1 = 0.0895): 1.4203 ± 0.0004
refractive index ([3]; 323.15 K, x1 = 0.1758): 1.4184 ± 0.0004
refractive index ([3]; 323.15 K, x1 = 0.3578): 1.4159 ± 0.0004
refractive index ([3]; 323.15 K, x1 = 0.4397): 1.4154 ± 0.0004
refractive index ([3]; 323.15 K, x1 = 0.6482): 1.415 ± 0.0004
refractive index ([3]; 323.15 K, x1 = 0.8121): 1.4152 ± 0.0004
refractive index ([3]; 323.15 K, x1 = 1): 1.4153 ± 0.0004
SMILES: CCCCn1cc[n+](C)c1.F[B-](F)(F)F [1-butyl-3-methylimidazolium tetrafluoroborate] + OCCO

refractive index ([1]; 298.15 K): 1.4111 ± 0.0005
refractive index ([1]; 303.15 K): 1.41 ± 0.0005
refractive index ([1]; 313.15 K): 1.4073 ± 0.0005
refractive index ([1]; 323.15 K): 1.4051 ± 0.0005
mass density ([2]; 293.15 K): 1290.63 ± 1.5 kg/m3
mass density ([2]; 298.15 K): 1286.82 ± 1.5 kg/m3
mass density ([2]; 303.15 K): 1283.02 ± 1.5 kg/m3
mass density ([2]; 313.15 K): 1275.45 ± 1.4 kg/m3
mass density ([2]; 323.15 K): 1267.97 ± 1.4 kg/m3
mass density ([2]; 333.15 K): 1260.55 ± 1.4 kg/m3
mass density ([2]; 343.15 K): 1253.18 ± 1.4 kg/m3
mass density ([2]; 353.15 K): 1245.87 ± 1.4 kg/m3
SMILES: CCn1cc[n+](C)c1.F[B-](F)(F)F [1-ethyl-3-methylimidazolium tetrafluoroborate]
